Experimental data reported in ChEMBL document CHEMBL5226296, “Reversible Lysine Specific Demethylase 1 (LSD1) Inhibitors: A Promising Wrench to Impair LSD1” (J Med Chem, 2021).
One block for each compound: values may come before it.

How the values were obtained:
[1] = molecular target: T1, Lysine-specific histone demethylase 1A (Homo sapiens, UniProt O60341); test: Inhibition of human GST-tagged LSD1 demethylase activity using H3K4 peptide as substrate by MALDI-TOF analysis
[2] = molecular target: T1, Lysine-specific histone demethylase 1A; test: Inhibition of LSD1 (unknown origin) by fluorescence based microplate reader analysis
MDA-MB-231 = test: Antiproliferative activity against human MDA-MB-231 cells assessed as reduction in cell viability incubated for 48 hrs by MTT assay; assay type: functional, cell-based; details: MDA-MB-231, 48 h
[3] = molecular target: T1, Lysine-specific histone demethylase 1A; test: Inhibition of human LSD1 (172 to 833 residues) expressed in Escherichia coli Rosetta 2 strain using H3K4me1 (1 to 21 residues) as substrate by Amplex Red reagent based fluorescence assay
[4] = molecular target: T2, Amine oxidase [flavin-containing] A (Homo sapiens, UniProt P21397); test: Inhibition of recombinant MAO-A (unknown origin) by Spectrometric analysis
T2 sequence (P21397 whole entry): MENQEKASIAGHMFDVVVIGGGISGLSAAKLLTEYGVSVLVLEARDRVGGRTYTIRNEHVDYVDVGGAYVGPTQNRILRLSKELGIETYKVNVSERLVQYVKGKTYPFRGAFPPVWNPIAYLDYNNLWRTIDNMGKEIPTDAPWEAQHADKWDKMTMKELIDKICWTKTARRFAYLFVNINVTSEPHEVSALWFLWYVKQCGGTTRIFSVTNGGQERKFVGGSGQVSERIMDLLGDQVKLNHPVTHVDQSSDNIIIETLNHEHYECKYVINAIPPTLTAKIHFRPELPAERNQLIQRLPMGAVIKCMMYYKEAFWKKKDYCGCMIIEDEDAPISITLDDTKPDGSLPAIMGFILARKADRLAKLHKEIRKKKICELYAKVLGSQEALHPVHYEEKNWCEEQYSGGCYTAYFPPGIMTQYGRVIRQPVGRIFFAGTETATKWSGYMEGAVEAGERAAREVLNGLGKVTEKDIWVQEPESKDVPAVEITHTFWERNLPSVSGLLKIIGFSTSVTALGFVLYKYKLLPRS

[5] = molecular target: T3, Amine oxidase [flavin-containing] B (Homo sapiens, UniProt P27338); test: Inhibition of recombinant MAO-B (unknown origin) by Spectrometric analysis
T3 sequence (P27338 whole entry): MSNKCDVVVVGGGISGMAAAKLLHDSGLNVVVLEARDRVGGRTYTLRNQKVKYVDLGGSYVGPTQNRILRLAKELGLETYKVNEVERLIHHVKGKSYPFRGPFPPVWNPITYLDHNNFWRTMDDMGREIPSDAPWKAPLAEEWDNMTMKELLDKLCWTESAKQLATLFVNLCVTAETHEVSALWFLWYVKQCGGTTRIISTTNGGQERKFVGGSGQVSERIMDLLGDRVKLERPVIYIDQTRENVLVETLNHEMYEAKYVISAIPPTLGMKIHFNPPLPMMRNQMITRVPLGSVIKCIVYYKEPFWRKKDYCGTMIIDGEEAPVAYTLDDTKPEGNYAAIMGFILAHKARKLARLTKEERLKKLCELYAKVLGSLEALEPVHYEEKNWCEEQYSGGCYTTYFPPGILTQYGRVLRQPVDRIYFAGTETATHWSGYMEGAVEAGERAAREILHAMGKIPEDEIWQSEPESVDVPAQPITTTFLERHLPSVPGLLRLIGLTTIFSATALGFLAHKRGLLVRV

MGC-803 = test: Antiproliferative activity against human MGC-803 cells assessed as reduction in cell viability incubated for 72 hrs by MTT assay; assay type: functional, cell-based
[6] = Cytotoxicity against human GES1 cells assessed as reduction in cell viability incubated for 72 hrs by MTT assay; assay type: toxicity, cell-based
[7] = molecular target: T1, Lysine-specific histone demethylase 1A; test: Inhibition of LSD1 (unknown origin) using methylated histone H3K4 peptide as substrate by fluorescence analysis
[8] = molecular target: T1, Lysine-specific histone demethylase 1A; test: Inhibition of LSD1 (unknown origin)
[9] = molecular target: T1, Lysine-specific histone demethylase 1A; test: Inhibition of LSD1 (unknown origin) using H3K4me2 peptide as substrate at 1 uM incubated for 30 mins by Amplex Red reagent based fluorescence analysis
MAO-A [10] = molecular target: T4, MAO-A (Homo sapiens, UniProt P21397); test: Inhibition of recombinant MAO-A (unknown origin) at 1 uM incubated for 15 mins followed by luciferin substrate addition and measured after 60 mins by Promega-Glo analysis; details: probe luciferin substrate, time 75 min
T4 sequence (P21397 whole entry): T2 sequence (P21397 whole entry)

MAO-B [11] = molecular target: T5, MAO-B (Homo sapiens, UniProt P27338); test: Inhibition of recombinant MAO-B (unknown origin) at 1 uM incubated for 15 mins followed by luciferin substrate addition and measured after 60 mins by Promega-Glo analysis; details: probe luciferin substrate, time 75 min
T5 sequence (P27338 whole entry): T3 sequence (P27338 whole entry)

Raji = test: Antiproliferative activity against human Raji cells assessed as reduction in cell viability incubated for 6 days by MTS assay; assay type: functional, cell-based; details: 144 h
OCI-AML-3 = test: Antiproliferative activity against human OCI-AML-3 cells assessed as reduction in cell viability incubated for 6 days by MTS assay; assay type: functional, cell-based; details: OCI-AML-3, 144 h
K562 = test: Antiproliferative activity against human K562 cells assessed as reduction in cell viability incubated for 6 days by MTS assay; assay type: functional, cell-based; details: K562, 144 h
THP-1 = test: Antiproliferative activity against human THP-1 cells assessed as reduction in cell viability incubated for 6 days by MTS assay; assay type: functional, cell-based; details: THP-1, 144 h
U-937 = test: Antiproliferative activity against human U-937 cells assessed as reduction in cell viability incubated for 6 days by MTS assay; assay type: functional, cell-based; details: U-937, 144 h
[12] = molecular target: T1, Lysine-specific histone demethylase 1A; test: Inhibition of recombinant LSD1 (unknown origin)
[13] = molecular target: T1, Lysine-specific histone demethylase 1A; test: Inhibition of LSD1 (unknown origin) by fluorescence analysis
[14] = molecular target: T1, Lysine-specific histone demethylase 1A; test: Inhibition of LSD1 (unknown origin) expressed in Escherichia coli BL21 (DE) using H3K4me2 peptide as substrate incubated for 30 mins by Amplex Red reagent based fluorescence analysis
MAO-A [15] = molecular target: T4, MAO-A; test: Inhibition of recombinant MAO-A (unknown origin) at 1 uM by MAO-GloTM assay
MAO-B [16] = molecular target: T5, MAO-B; test: Inhibition of recombinant MAO-B (unknown origin) at 1 uM by MAO-GloTM assay
[17] = molecular target: T2, Amine oxidase [flavin-containing] A; test: Inhibition of recombinant MAO-A (unknown origin) by MAO-Glo assay
[18] = molecular target: T3, Amine oxidase [flavin-containing] B; test: Inhibition of recombinant MAO-B (unknown origin) by MAO-Glo assay

IC50 [1]: 10.5 µM
Compound: N=C(N)c1ccc(C(=O)N2CCN(C(=O)c3cc(CN4CCN(C(=N)N)CC4)cc([N+](=O)[O-])c3)CC2)cc1

IC50 [2]: 2.98 µM
IC50 (MDA-MB-231): 19.4 µM
Compound: COc1c(O[C@H]2O[C@@H](C(=O)O)[C@H](O)[C@@H](O)[C@@H]2O)cc(O)c2c(=O)cc(-c3ccccc3)oc12

Ki [3]: 2.3 µM
Compound: CSCC[C@@H]1NC(=O)[C@@H](NC(=O)[C@H](CCCNC(=N)N)NC(=O)[C@H](C)N)CCCCNC(=O)CC[C@@H](C(=O)N[C@@H](CCC(=O)O)C(=O)N[C@@H](C)C(=O)N[C@@H](CCCNC(=N)N)C(=O)N[C@@H](CCCCN)C(=O)N[C@@H](CO)C(=O)N[C@H](C(=O)O)[C@@H](C)O)NC1=O

IC50 [4]: 71 µM
IC50 [5]: 138 µM
Compound: COCc1cccc(NC(=O)c2cc3ccccc3n2C)c1COc1ccc(OC2CCNCC2)cc1

IC50 (MGC-803): 2.95 µM
Compound: COc1ccc(-c2coc3cc(O)cc(O)c3c2=O)cc1 [BIOCHANIN]
IC50 at 72 h [6]: > 32 µM

IC50 [7]: 16.1 µM
Compound: CSCCc1nc(-c2cccc(N)c2)oc1C

IC50 [4]: 63.9 µM
IC50 [5]: 298 µM
Compound: O=C(NCCc1ccc([N+](=O)[O-])cc1)c1cccc(NS(=O)(=O)c2ccccc2)c1

IC50 [1]: 5.27 µM
Compound: COC(=O)c1cc(CN2CCN(C(=N)N)CC2)cc(C(=O)N2CCN(C(=O)c3ccc(C(=N)N)cc3)CC2)c1

Compound: COc1cc(CNC(=O)CCCC/C=C/C(C)C)ccc1O [CAPSAICIN]
IC50 [8]: 0.6 µM

inhibition [9]: 95.6%
inhibition at 1.25 h, 1 µM (MAO-A [10]): < 10%
inhibition at 1.25 h, 1 µM (MAO-B [11]): < 10%
IC50 (Raji): 1.4 µM
IC50 (OCI-AML-3): 1.79 µM
IC50 (K562): 1.3 µM
IC50 (THP-1): 0.45 µM
IC50 (U-937): 1.22 µM
Compound: C#CCSc1nc(Sc2nnnn2-c2ccccc2)c2nnn(Cc3ccccc3Cl)c2n1

IC50 [4]: 109 µM
IC50 [5]: 344 µM
Compound: Cc1ccc(S(=O)(=O)Nc2cccc(C(=O)NCCc3ccc(O)cc3)c2)cc1

IC50 [4]: 90 µM
IC50 [5]: 226 µM
Compound: Cc1ccc(S(=O)(=O)Nc2cccc(C(=O)NCCc3ccc([N+](=O)[O-])cc3)c2)cc1

Compound: C=CC(=O)Nc1cc(Nc2nccc(-c3cn(C)c4ccccc34)n2)c(OC)cc1N(C)CCN(C)C [OSIMERTINIB]
IC50 [12]: 3.98 µM

IC50 (MDA-MB-231): 12.8 µM
IC50 [13]: 2.81 µM
Compound: COc1c(O)cc2oc3cc(O)c(CC=C(C)C)c(O)c3c(=O)c2c1CC=C(C)C [MANGOSTIN]

IC50 [14]: 0.14 µM
inhibition at 1 µM (MAO-A [15]): < 30%
inhibition at 1 µM (MAO-B [16]): < 30%
Compound: COc1cc2c(cc1OC)-c1cc3ccc4c(c3c[n+]1CC2)OCO4

IC50 [17]: > 20 µM
IC50 [18]: > 20 µM
Compound: CC(C)(C)OC(=O)N1CCN(C(=S)SCC(=O)Nc2ccc(C(=O)/C=C/c3ccccc3F)cc2)CC1
